{"source": "paper PMC6396489", "about": "(Cell Communication and Signaling : CCS, 2019)", "key": {"[1]": {"target": "T1, Shp1 (Homo sapiens, UniProt P29350)", "T1 construct": "the C-terminal truncated form of human Shp1 cDNA (His-Shp1; amino acids 1–529); made in house; host or cells: E. coli BL21(DE3)", "T1 sequence (P29350 1-529 isoform P29350-3)": "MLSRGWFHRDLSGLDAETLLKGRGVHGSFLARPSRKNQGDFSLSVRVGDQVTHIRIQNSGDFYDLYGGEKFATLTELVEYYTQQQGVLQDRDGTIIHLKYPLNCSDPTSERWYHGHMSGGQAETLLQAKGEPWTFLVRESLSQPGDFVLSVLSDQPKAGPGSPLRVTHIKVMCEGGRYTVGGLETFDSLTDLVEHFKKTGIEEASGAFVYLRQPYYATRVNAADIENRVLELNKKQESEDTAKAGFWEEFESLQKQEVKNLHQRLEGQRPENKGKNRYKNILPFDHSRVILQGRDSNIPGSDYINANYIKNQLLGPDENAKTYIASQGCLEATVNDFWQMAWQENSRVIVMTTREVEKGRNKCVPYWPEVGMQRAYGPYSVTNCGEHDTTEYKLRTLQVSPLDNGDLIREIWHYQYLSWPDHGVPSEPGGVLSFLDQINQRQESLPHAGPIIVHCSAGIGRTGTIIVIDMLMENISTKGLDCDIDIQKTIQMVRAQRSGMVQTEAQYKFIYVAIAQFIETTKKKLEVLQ", "assay": "SPR competition assay with free GroPIns4P", "details": "Shp1 1.2 μM; read-out: EC50 of competition with Shp1 binding to GroPIns4P-Bio chip", "procedure": "For the competition experiments, SPR assays were performed at a fixed concentration of Shp1 (1.2 μM) in the presence of increasing concentrations of GroPIns4P (0.0 to 5.0 μM). Both Shp1 and GroPIns4P were dissolved in HBS-EP buffer and incubated for 10 min before injection onto the SA sensor chip. The flow was fixed to 20 μL/min, and the time of injection was 3 min. A solution of 2.0 mM glycine/HCl, pH 3.0, was used in the regeneration step to remove the analyte bond before reusing the sensor chip."}, "[2]": {"target": "T1, Shp1", "assay": "Isothermal titration calorimetry, Shp1 WT", "assay_type": "binding", "procedure": "ITC measurements were performed by using a Nano-ITC III (TA instruments, New Castle, DE, USA) with a reaction cell volume of 1 ml kept at 25 °C. A protein solution of 10 μM was titrated into the calorimetric cell with a solution of 50–100 μM of the ligand GroPIns4P (Ins4P) in the syringe. A sequence of 16 injections of 15 μL volume was programmed with a stirring speed of 250 rpm at 500 s intervals. Protein samples were prepared with protein solutions at 25 °C in 20 mM Tris buffer pH 7.4 with 50 mM NaCl and 1 mM TCEP. To minimise the differences in buffer composition and pH between cell and syringe, both ligand and protein solutions were prepared with the same batch of buffer. The heat of dilution of the GroPIns4P into the buffer solution was measured in a separate experiment and appropriate corrections were made. The heat evolved after each ligand injection was obtained from the integral of the calorimetric signal. Raw data were integrated, corrected for non-specific heats and normalized for concentration. The equilibrium dissociation constant (KD), binding enthalpy (ΔbH) and binding stoichiometry (n) were obtained by nonlinear regression of the experimental data using a model of independent binding sites, by means of the NanoAnalyze software. Experiments were performed in duplicate."}, "[3]": {"target": "T1, Shp1", "assay": "In-vitro dephosphorylation of Src by recombinant Shp1", "assay_type": "biochemical", "details": "50 μM, 10 min at 37 °C", "procedure": "The immunoprecipitates were washed three times with lysis buffer, three times with lysis buffer without phosphatase inhibitors, and twice with phosphatase buffer (100 mM Na-Hepes, pH 7.4, 150 mM NaCl, 1 mM EDTA, and 10 mM DTT). The immunoprecipitates were then split equally into different tubes for treatment with Shp1 or buffer only. The treatment consisted of the addition of 2 μg of Shp1 to the immunoprecipitates in the absence or presence of 50 μM GroPIns4P and an incubation at 37 °C for different times. The reactions were terminated by the addition of concentrated SDS-sample buffer."}, "[4]": {"test_system": "T2, Shp1 and Src", "T2 construct": "expressed in transfected cells; host or cells: NIH3T3", "assay": "Co-immunoprecipitation of Src with Shp1 in NIH3T3 cells", "assay_type": "cell-based", "details": "50 μM for 5 min", "procedure": "NIH3T3 cells were washed with ice-cold PBS and lysed on ice in buffer containing 20 mM Tris-HCl, pH 8.0, 150 mM NaCl, 1% Triton-X100, 5 mM Na3VO4, 30 mM β-glycerophosphate and 10 mM NaF supplemented with the protease inhibitor cocktail and processed for SDS-PAGE. Westen blotting was performed with the relevant antibodies. For immunoprecipitation experiments, 2 μg of an anti-Shp1 antibody or 5 μg of an anti-Src antibody were added to 1 mg of NIH3T3 cell lysates at 4 °C and incubated overnight. The samples were then incubated with A or G protein agarose beads for 1 h at 4 °C. Western blotting was performed from the washed and denatured complexes."}, "[5]": {"test_system": "T2, Shp1 and Src", "assay": "Acceptor photobleaching FRET of Shp1-CFP and Src-YFP", "assay_type": "cell-based", "details": "50 μM for 5 min", "procedure": "Acceptor photobleaching (apFRET) experiments were carried out with Leica SP5 confocal microscope, as follows: for CFP (donor) fluorescence detection, excitation at 458 nm and fluorescence detected at 470–490 nm. For YFP bleaching, a 514 nm argon laser was used. apFRET was measured by increase in CFP fluorescence intensity before (IDA) and after (ID) YFP photobleaching. To ensure reproducibility and reliability of CFP fluorescence measurements in the absence of acceptor (ID), YFP was photobleached to 10% of its initial fluorescence. The FRET efficiency was calculated as E = (ID − IDA)/ ID ."}}, "note": "Read-outs that look alike come from different tables or passages of the source.", "data": [{"smiles": "O=P(O)(O)OC1C(O)C(O)C(OP(=O)(O)OCC(O)CO)C(O)C1O", "note": "(stereo not drawn) [GroPIns4P, glycerophosphoinositol 4-phosphate]", "values": [{"measurement": "EC50", "setting": "[1]", "value": "~800", "unit": "nM"}, {"measurement": "Kd", "setting": "[2]; ITC, 25 °C, Shp1 WT, read-out: KD", "value": 300, "unit": "nM"}, {"measurement": "Kd", "setting": "[2]; summary over ITC, Trp fluorescence and SPR competition, read-out: affinity of the binding", "value": "300 to 800", "unit": "nM"}, {"measurement": "effect on Shp1 phosphatase activity against immunopurified Src (pTyr530)", "setting": "[3]", "value": "stimulated Shp1 activity and induced Src dephosphorylation"}, {"measurement": "increase in the interaction between Shp1-C455S and Src", "setting": "[4]; NIH3T3 over-expressing Shp1-C455S", "value": 2.2, "unit": "fold"}, {"measurement": "change in Shp1-Src complex formation", "setting": "[4]; NIH3T3 over-expressing Shp1 S118A/R138E/S140A", "value": "no change"}, {"measurement": "increase of Shp1-Src interaction compared with the control", "setting": "[4]; NIH3T3 over-expressing Shp1 WT", "value": "about 1.6 fold"}, {"measurement": "FRET efficiency in hot spots", "setting": "[5]; lamellar regions", "value": "over 20%"}, {"measurement": "average FRET efficiency", "setting": "[5]; over the cells", "value": 9, "unit": "%"}]}]}
